Counter-ions that a name gives are not always drawn.
Columns and labels:
HCT-116 cell line = test: Inhibition of cell growth, tetrazolium salt (MTT) assay; assay type: cell-based; details: Homo sapiens, MTT; for inhibition at 0.175 µM: HCT-116, HCT-116 cells, compound at 0.175 uM; for IC50: HCT-116, 120 h, first HCT-116 column (c4), three to five days, read-out: HCT-116 IC50
In short: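 MTT colorimetric viability: three-to-five-day compound exposure in 0.5% (v/v) DMSO at 37° C, MTT 0.2 mg/mL for the last 4 h, A540 compared with vehicle-treated cells.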

CDK2/Cyclin A = CDK2/Cyclin A (Homo sapiens, UniProt P24941); test: Inhibition of CDK2/Cyclin A Retinoblastoma Kinase Activity; assay type: biochemical; details: for inhibition at 0.05 µM: read-out: % inhibition of CDK2 (@ 0.05 μM), compound at 0.05 μM; for Ki: apparent Ki, CDK2/proteolyzed cyclin A, Rb fragment substrate, 25 μM ATP
In short: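 Percent inhibition is calculated against DMSO-only wells after subtracting no-enzyme background. The enzyme is human CDK2 complexed with proteolyzed cyclin A, used at 10 nM or 19 nM on an Rb fragment with 25 μM [32/33P]ATP, at pH 7.4 and 30° C.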

Row | Compound | inhibition at 0.05 µM (CDK2/Cyclin A) | IC50 (HCT-116 cell line) | inhibition at 0.5 µM (CDK2/Cyclin A; @0.5 μM, printed in the CDK2 Ki column) | Ki (CDK2/Cyclin A) | inhibition at 0.175 µM (HCT-116 cell line)
1 | CN(C)C1CCN(CCCS(=O)(=O)N2CCC(Nc3nc(N)c(C(=O)c4c(F)cccc4F)s3)CC2)C1 (stereo not shown) [Example V99] | 69% |  |  |  | 0%
2 | Nc1nc(NC2CCN(S(=O)(=O)CCCNCCCN3CCCC3)CC2)sc1C(=O)c1c(F)cccc1F [Example V73] | 82% |  |  |  | 0%
3 | NC(=O)CCNCCCS(=O)(=O)N1CCC(Nc2nc(N)c(C(=O)c3c(F)cccc3F)s2)CC1 [Example V122] | 79% |  |  |  | 32%
4 | CCN(CC)CCCS(=O)(=O)N1CCC(Nc2nc(N)c(C(=O)c3c(F)cccc3F)s2)CC1 [Example V57] | 77% |  |  |  | 33%
5 | CN(CCCS(=O)(=O)N1CCC(Nc2nc(N)c(C(=O)c3c(F)cccc3F)s2)CC1)CC(O)CO (stereo not shown) [Example V124] | 80% |  |  |  | 9%
6 | CCN1CCN(CCCS(=O)(=O)N2CCC(Nc3nc(N)c(C(=O)c4c(F)cccc4F)s3)CC2)CC1 [Example V59] | 72% |  |  |  | 7%
7 | Cc1cc(NCCCS(=O)(=O)N2CCC(Nc3nc(N)c(C(=O)c4c(F)cccc4F)s3)CC2)no1 [Example V44] | 80% |  |  |  | 17%
8 | Nc1nc(NC2CCN(S(=O)(=O)CCCNCCSCCO)CC2)sc1C(=O)c1c(F)cccc1F [Example V125] | 87% |  |  |  | 5%
9 | Nc1nc(NC2CCN(S(=O)(=O)CCCNCCc3cccnc3)CC2)sc1C(=O)c1c(F)cccc1F [Example V114] | 86% |  |  |  | 17%
10 | CC(C)CCNCCCS(=O)(=O)N1CCC(Nc2nc(N)c(C(=O)c3c(F)cccc3F)s2)CC1 [Example V60] | 84% |  |  |  | 18%
11 | C=CCN1CCN(CCCS(=O)(=O)N2CCC(Nc3nc(N)c(C(=O)c4c(F)cccc4F)s3)CC2)CC1 [Example V74] | 82% |  |  |  | 44%
12 | CC(C)(C)NCCC(=O)N1CCC(Nc2nc(N)c(C(=O)c3c(F)cccc3F)s2)CC1 [Example U4, Acetic Acid Salt] |  | > 5000 nM | 40% |  | 
13 | Nc1nc(NC2CCN(S(=O)(=O)CCCN3CCCCCC3)CC2)sc1C(=O)c1c(F)cccc1F [Example V69] | 81% |  |  |  | 54%
14 | Nc1nc(NC2CCN(S(=O)(=O)CCCNCCN3CCCCC3)CC2)sc1C(=O)c1c(F)cccc1F [Example V5] | 79% |  |  |  | 7%
15 | NC(=O)CNCCCS(=O)(=O)N1CCC(Nc2nc(N)c(C(=O)c3c(F)cccc3F)s2)CC1 [Example V17] | 78% |  |  |  | 0%
16 | Nc1nc(NC2CCN(S(=O)(=O)CCCN3CCCC(O)C3)CC2)sc1C(=O)c1c(F)cccc1F (stereo not shown) [Example V77] | 72% |  |  |  | 7%

Row | Compound | inhibition at 0.05 µM (CDK2/Cyclin A) | IC50 (HCT-116 cell line) | inhibition at 0.5 µM (CDK2/Cyclin A; @0.5 μM, printed in the CDK2 Ki column) | Ki (CDK2/Cyclin A) | inhibition at 0.175 µM (HCT-116 cell line)
17 | CCCCNCCCS(=O)(=O)N1CCC(Nc2nc(N)c(C(=O)c3c(F)cccc3F)s2)CC1 [Example V85] | 82% |  |  |  | 29%
18 | CCCCN(CC#N)CCCS(=O)(=O)N1CCC(Nc2nc(N)c(C(=O)c3c(F)cccc3F)s2)CC1 [Example V119] | 75% |  |  |  | 0%
19 | COC1CCN(CCCS(=O)(=O)N2CCC(Nc3nc(N)c(C(=O)c4c(F)cccc4F)s3)CC2)CC1 [Example K59, {4-Amino-2-[(1-{[3-(4-methoxypiperidin-1-yl)propyl]sulfonyl}piperidin-4-yl)amino]-1,3-thiazol-5-yl}(2,6-difluorophenyl)methanone] |  | 270 nM |  | 11 nM | 
20 | N#CCCNCCCS(=O)(=O)N1CCC(Nc2nc(N)c(C(=O)c3c(F)cccc3F)s2)CC1 [Example V92] | 81% |  |  |  | 9%
21 | Nc1nc(NC2CCN(S(=O)(=O)CCCNCc3ccncc3)CC2)sc1C(=O)c1c(F)cccc1F [Example V23] | 87% |  |  |  | 24%
22 | Nc1nc(NC2CCN(S(=O)(=O)CCCNCCC3CCCN3)CC2)sc1C(=O)c1c(F)cccc1F (stereo not shown) [Example V1] | 80% |  |  |  | 7%
23 | Nc1nc(NC2CCN(S(=O)(=O)CCCNc3ccon3)CC2)sc1C(=O)c1c(F)cccc1F [Example V116] | 77% |  |  |  | 0%
24 | CC(C)NCCCS(=O)(=O)N1CCC(Nc2nc(N)c(C(=O)c3c(F)cccc3F)s2)CC1 [Example V93] | 84% |  |  |  | 11%
25 | Nc1nc(NC2CCN(S(=O)(=O)CCCNCc3cccs3)CC2)sc1C(=O)c1c(F)cccc1F [Example V28] | 91% |  |  |  | 33%
26 | Nc1nc(NC2CCN(S(=O)(=O)CCCNc3nnn[nH]3)CC2)sc1C(=O)c1c(F)cccc1F [Example V84] | 24% |  |  |  | 0%
27 | Cc1cccc(NCCCS(=O)(=O)N2CCC(Nc3nc(N)c(C(=O)c4c(F)cccc4F)s3)CC2)n1 [Example V62] | 91% |  |  |  | 0%
28 | CC(C)OCCCNCCCS(=O)(=O)N1CCC(Nc2nc(N)c(C(=O)c3c(F)cccc3F)s2)CC1 [Example V96] | 84% |  |  |  | 10%
29 | CN(C)C1CCN(CCCS(=O)(=O)N2CCC(Nc3nc(N)c(C(=O)c4c(F)cccc4F)s3)CC2)CC1 [Example V22] | 67% |  |  |  | 13%
30 | C[C@H](NCCCS(=O)(=O)N1CCC(Nc2nc(N)c(C(=O)c3c(F)cccc3F)s2)CC1)C(N)=O [Example V121] | 77% |  |  |  | 4%
31 | Nc1nc(NC2CCN(S(=O)(=O)CCCN3CCSCC3)CC2)sc1C(=O)c1c(F)cccc1F [Example V104] | 86% |  |  |  | 42%
32 | C#CCN(C)CCCS(=O)(=O)N1CCC(Nc2nc(N)c(C(=O)c3c(F)cccc3F)s2)CC1 [Example V65] | 79% |  |  |  | 30%

The next lines start with results.

Row | inhibition at 0.05 µM (CDK2/Cyclin A) | IC50 (HCT-116 cell line) | inhibition at 0.5 µM (CDK2/Cyclin A; @0.5 μM, printed in the CDK2 Ki column) | Ki (CDK2/Cyclin A) | Compound | inhibition at 0.175 µM (HCT-116 cell line)
33 | 84% |  |  |  | CC(CN(C)C)NCCCS(=O)(=O)N1CCC(Nc2nc(N)c(C(=O)c3c(F)cccc3F)s2)CC1 (stereo not shown) [Example V126] | 6%
34 | 83% |  |  |  | Nc1nc(NC2CCN(S(=O)(=O)CCCN3CCCC(F)(F)C3)CC2)sc1C(=O)c1c(F)cccc1F [Example V167] | 0%
35 | 88% |  |  |  | Nc1nc(NC2CCN(S(=O)(=O)CCCNC3CCCCCC3)CC2)sc1C(=O)c1c(F)cccc1F [Example V159] | 8%
36 | 82% |  |  |  | Nc1nc(NC2CCN(S(=O)(=O)CCCN[C@H]3CC[C@@H](CO)CC3)CC2)sc1C(=O)c1c(F)cccc1F [Example V170] | 14%
37 | 88% |  |  |  | Nc1nc(NC2CCN(S(=O)(=O)CCCNC3CCSCC3)CC2)sc1C(=O)c1c(F)cccc1F [Example V161] | 2%
38 | 83% |  |  |  | Nc1nc(NC2CCN(S(=O)(=O)CCCN3CCC(F)(F)CC3)CC2)sc1C(=O)c1c(F)cccc1F [Example V168] | 37%
39 | 82% |  |  |  | Nc1nc(NC2CCN(S(=O)(=O)CCCN3CCNC(=O)CC3)CC2)sc1C(=O)c1c(F)cccc1F [Example V156] | 0%
40 | 83% |  |  |  | Nc1nc(NC2CCN(S(=O)(=O)CCCNC3CCCNC3=O)CC2)sc1C(=O)c1c(F)cccc1F (stereo not shown) [Example V162] | 9%
41 | 83% |  |  |  | Nc1nc(NC2CCN(S(=O)(=O)CCCN[C@H]3CCC(=O)NC3)CC2)sc1C(=O)c1c(F)cccc1F [Example V157] | 46%
42 | 76% |  |  |  | C=C(C)CN(C)CCCS(=O)(=O)N1CCC(Nc2nc(N)c(C(=O)c3c(F)cccc3F)s2)CC1 [Example V137] | 78%
43 | 80% |  |  |  | CCOC(=O)CCNCCCS(=O)(=O)N1CCC(Nc2nc(N)c(C(=O)c3c(F)cccc3F)s2)CC1 [Example V132] | 20%
44 | 76% |  |  |  | COC(=O)CN(C)CCCS(=O)(=O)N1CCC(Nc2nc(N)c(C(=O)c3c(F)cccc3F)s2)CC1 [Example V136] | 9%
45 | 78% |  |  |  | CN(C)CCCS(=O)(=O)N1CCC(Nc2nc(N)c(C(=O)c3c(F)cccc3F)s2)CC1 [Example V147] | 23%
46 | 88% |  |  |  | CCSCCNCCCS(=O)(=O)N1CCC(Nc2nc(N)c(C(=O)c3c(F)cccc3F)s2)CC1 [Example V129] | 49%
47 | 84% |  |  |  | Cc1nnc(CCNCCCS(=O)(=O)N2CCC(Nc3nc(N)c(C(=O)c4c(F)cccc4F)s3)CC2)[nH]1 [Example V174] | 26%
48 |  | 80 nM |  | 4.6 nM | Nc1nc(NC2CCN(S(=O)(=O)CCCNCc3cccc(F)c3)CC2)sc1C(=O)c1c(F)cccc1F [Example V178, (4-Amino-2-{[1-({3-[(3-fluorobenzyl)amino]propyl}sulfonyl)-4-piperidinyl]amino}-1,3-thiazol-5-yl)(2,6-difluorophenyl)methanone.] | 
49 | 78% |  |  |  | Cc1nnc(CCNCCCS(=O)(=O)N2CCC(Nc3nc(N)c(C(=O)c4c(F)cccc4F)s3)CC2)o1 [Example V175] | 5%
50 | 81% |  |  |  | COC1CCN(CCCS(=O)(=O)N2CCC(Nc3nc(N)c(C(=O)c4c(F)cccc4F)s3)CC2)CC1 [Example V171] | 65%

From US20050101595A1, “N-containing cycloalkyl-substituted amino-thiazole derivatives and pharmaceutical compositions for inhibiting cell proliferation and methods for their use” (PFIZER INC., priority 2003, published 2005)
